This note sets out measurements from US20220177510A1, “DERIVATIVES OF GYLCERO-MANNO-HEPTOSE ADP FOR USE IN MODULATING IMMUNE RESPONSE” (priority 2019, published 2022).

A word on the EC50: it is the concentration needed to bring the measured effect to its halfway point. Lower therefore signals higher potency in that assay.

Test [1] concerns the target T1, ALPK1 (Homo sapiens, UniProt Q96QP1).
T1 construct: endogenous in cells; host or cells: HEK293 (A1); HEK293 stably expressing an NF-kB-alkaline phosphatase reporter (A2)
Put plainly: NF-kB promoter driven alkaline phosphatase reporter in HEK293 cells (pNPP assay). The class given is cell-based. The following applies: HEK293-NFkB-AP reporter cells treated 7 hours. The procedure:
NF-kB activation was assayed using HEK293 cells stably expressing an NF-kB reporter construct comprising an NF-kB promoter driving expression of alkaline phosphatase (AP). In this system, activation of NF-kB promoter activity drives the expression of AP which is detected using a chromogenic substrate, para-nitrophenyl phosphate (pNPP).
To assess the ALPK1 agonist activity of test compounds, the HEK293 cells were seeded in 96-well plates and allowed to attach overnight. Cells were then exposed to graded concentrations of compounds A1, A2, A3, A4, A18, A26, A27, A28, and A30. Compound 28 was included as a reference. Following treatment, cell culture supernatants were collected and analyzed for alkaline phosphatase activity using the pNPP assay. The results are shown in FIGS. 7A-7B and Table 2B-C below. The EC50 for each compound was determined using GraphPad Prism.

Test [2] has as its target T1, ALPK1. Briefly: IL-8 secretion by HEK293 cells (IL-8 ELISA) as indication of ALPK1 activation. The class given is cell-based. The following applies: HEK293 cells treated 4 hours, FIG. 6, Table 2A. How it is done: HEK293 cells were treated with H1b-ADP derivatives (A1, A2, A3, and A4) or with Compound 28 for 4 hours followed by analysis of IL-8 secretion using an IL-8 enzyme linked immunoassay (ELISA). IL-8 secretion is an indication of ALPK1 activation. The EC50 of each compound was determined using GraphPad Prism.

T1 sequence (Q96QP1 whole entry): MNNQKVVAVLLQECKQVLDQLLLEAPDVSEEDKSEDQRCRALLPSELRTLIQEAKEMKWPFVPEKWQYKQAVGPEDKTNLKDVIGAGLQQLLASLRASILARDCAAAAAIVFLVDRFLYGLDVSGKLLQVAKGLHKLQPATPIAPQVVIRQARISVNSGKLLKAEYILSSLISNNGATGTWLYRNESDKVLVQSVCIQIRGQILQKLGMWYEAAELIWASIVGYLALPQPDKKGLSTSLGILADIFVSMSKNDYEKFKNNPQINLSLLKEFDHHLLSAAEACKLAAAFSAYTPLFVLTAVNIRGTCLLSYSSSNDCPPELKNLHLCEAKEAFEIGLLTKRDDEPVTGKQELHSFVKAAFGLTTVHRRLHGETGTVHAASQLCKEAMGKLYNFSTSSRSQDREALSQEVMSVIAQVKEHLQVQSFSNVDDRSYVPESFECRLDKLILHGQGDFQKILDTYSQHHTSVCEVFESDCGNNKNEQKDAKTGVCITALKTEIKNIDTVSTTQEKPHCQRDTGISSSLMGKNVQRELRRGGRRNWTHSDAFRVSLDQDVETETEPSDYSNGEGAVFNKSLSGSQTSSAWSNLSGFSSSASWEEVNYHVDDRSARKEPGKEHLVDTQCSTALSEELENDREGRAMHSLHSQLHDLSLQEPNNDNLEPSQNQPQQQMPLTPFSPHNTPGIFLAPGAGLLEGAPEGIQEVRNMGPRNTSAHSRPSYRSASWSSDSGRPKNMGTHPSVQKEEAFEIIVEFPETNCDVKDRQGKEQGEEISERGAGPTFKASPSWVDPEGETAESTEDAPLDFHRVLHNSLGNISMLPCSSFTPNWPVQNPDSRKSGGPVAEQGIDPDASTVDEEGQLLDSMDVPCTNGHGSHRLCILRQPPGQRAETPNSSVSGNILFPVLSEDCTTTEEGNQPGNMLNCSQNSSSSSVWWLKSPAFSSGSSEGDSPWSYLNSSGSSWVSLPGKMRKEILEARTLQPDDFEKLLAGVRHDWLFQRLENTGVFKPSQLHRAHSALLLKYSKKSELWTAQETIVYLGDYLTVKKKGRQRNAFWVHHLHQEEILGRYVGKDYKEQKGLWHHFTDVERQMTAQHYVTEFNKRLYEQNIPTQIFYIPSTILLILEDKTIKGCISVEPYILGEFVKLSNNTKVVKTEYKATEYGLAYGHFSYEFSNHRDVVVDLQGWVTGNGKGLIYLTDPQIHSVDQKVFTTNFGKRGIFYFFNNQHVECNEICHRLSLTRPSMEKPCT

Regarding `CCCCCCCCCCCC(=O)OC[C@H](F)C1O[C@@H](OP(=O)(O)OP(O)(=S)OC[C@H]2O[C@@H](n3cnc4c(N)ncnc43)C(O)C2O)C(OC(C)=O)C(OC(C)=O)[C@@H]1OC(C)=O` (stereo in doubt) [Compound A2, 2S,3S,4S,5S,6S)-2-(((((((2R,3S,4R,5R)-5-(6-amino-9H-purin-9-yl)-3,4-dihydroxytetrahydrofuran-2-yl)methoxy)(hydroxy)phosphorothioyl)oxy)(hydroxy)phosphoryl)oxy)-6-((S)-2-(dodecanoyloxy)-1-fluoroethyl)tetrahydro-2H-pyran-3,4,5-triyl triacetate], the EC50 in test [1] (FIG. 7A, Table 2B) turned out to be 11.9 nM; in test [2], 7.1 nM.
On the same counts, the results for `CCCCCCCCCCCCCCCCCC(=O)OC[C@H](F)[C@H]1O[C@@H](OP(=O)(O)OP(O)(=S)OC[C@H]2O[C@@H](n3cnc4c(N)ncnc43)[C@H](O)[C@@H]2O)[C@@H](OC(C)=O)[C@@H](OC(C)=O)[C@@H]1OC(C)=O` (stereo partly drawn) [Compound A1, (2S,3S,4S,5S,6S)-2-(((((((2R,3S,4R,5R)-5-(6-amino-9H-purin-9-yl)-3,4-dihydroxytetrahydrofuran-2-yl)methoxy)(hydroxy)phosphorothioyl)oxy)(hydroxy)phosphoryl)oxy)-6-((S)-1-fluoro-2-(stearoyloxy)ethyl)tetrahydro-2H-pyran-3,4,5-triyl triacetate] are 11 nM and 3.1 nM.
`CC(=O)OC[C@H](F)[C@H]1O[C@@H](OP(=O)(O)OP(O)(=S)OC[C@H]2O[C@@H](n3ncc4c(N)ncnc43)[C@H](O)[C@@H]2O)[C@@H](OC(C)=O)[C@@H](OC(C)=O)[C@@H]1OC(C)=O` (stereo partly drawn) [Compound A26, (2S,3S,4S,5S,6S)-2-((S)-2-acetoxy-1-fluoroethyl)-6-(((((((2R,3S,4R,5R)-5-(4-amino-1H-pyrazolo[3,4-d]pyrimidin-1-yl)-3,4-dihydroxytetrahydrofuran-2-yl)methoxy)(hydroxy)phosphorothioyl)oxy)(hydroxy)phosphoryl)oxy)tetrahydro-2H-pyran-3,4,5-triyl triacetate] had an EC50 in test [1] (FIG. 7B, Table 2C) of 10100 nM. In other words, the double-digit micromolar range.
The same measure, in the same setting: next, `CC(=O)OC[C@H](F)C1O[C@@H](OP(=O)(O)OP(O)(=S)OC[C@H]2O[C@@H](n3cnc4c(NC(=O)c5ccccc5)ncnc43)C(O)C2O)C(OC(C)=O)C(OC(C)=O)[C@@H]1OC(C)=O` (stereo partly drawn) [Compound A27, (2S,3S,4S,5S,6S)-2-((S)-2-acetoxy-1-fluoroethyl)-6-(((((((2R,3S,4R,5R)-5-(6-benzamido-9H-purin-9-yl)-3,4-dihydroxytetrahydrofuran-2-yl)methoxy)(hydroxy)phosphorothioyl)oxy)(hydroxy)phosphoryl)oxy)tetrahydro-2H-pyran-3,4,5-triyl triacetate]: 37.8 nM; `CC(=O)OC[C@H](F)[C@H]1O[C@@H](OP(=O)(O)OP(O)(=S)OC[C@H]2O[C@@H](c3coc4c(N)ncnc34)[C@H](O)[C@@H]2O)[C@@H](OC(C)=O)[C@@H](OC(C)=O)[C@@H]1OC(C)=O` (stereo partly drawn) [Compound A28, (2S,3S,4S,5S,6S)-2-((S)-2-acetoxy-1-fluoroethyl)-6-(((((((2R,3S,4R,5S)-5-(4-aminofuro[3,2-d]pyrimidin-7-yl)-3,4-dihydroxytetrahydrofuran-2-yl)methoxy)(hydroxy)phosphorothioyl)oxy)(hydroxy)phosphoryl)oxy)tetrahydro-2H-pyran-3,4,5-triyl triacetate]: 3.9 nM.
Same read-out and setting: next, `CC(=O)OC[C@H](F)[C@H]1O[C@@H](OP(=O)(O)OP(O)(=S)OC[C@H]2O[C@@H](c3csc(C(N)=O)c3N)[C@H](O)[C@@H]2O)[C@@H](OC(C)=O)[C@@H](OC(C)=O)[C@@H]1OC(C)=O` (stereo partly drawn) [Compound A30, (2S,3S,4S,5S,6S)-2-((S)-2-acetoxy-1-fluoroethyl)-6-(((((((2R,3S,4R,5S)-5-(4-amino-5-carbamoylthiophen-3-yl)-3,4-dihydroxytetrahydrofuran-2-yl)methoxy)(hydroxy)phosphorothioyl)oxy)(hydroxy)phosphoryl)oxy)tetrahydro-2H-pyran-3,4,5-triyl triacetate]: 42.3 nM.
